Where two headings read alike, the source gives them in different places.
Key:
Drosophila OR10a = target: T1, Drosophila OR10a (Drosophila melanogaster, UniProt Q9VYZ1); assay: Calcium ion fluorescence (GCaMP6) assay, OR10a stable HEK293 cell line; type: cell-based
T1 construct: expressed in transfected cells
T1 sequence (Q9VYZ1 1-406): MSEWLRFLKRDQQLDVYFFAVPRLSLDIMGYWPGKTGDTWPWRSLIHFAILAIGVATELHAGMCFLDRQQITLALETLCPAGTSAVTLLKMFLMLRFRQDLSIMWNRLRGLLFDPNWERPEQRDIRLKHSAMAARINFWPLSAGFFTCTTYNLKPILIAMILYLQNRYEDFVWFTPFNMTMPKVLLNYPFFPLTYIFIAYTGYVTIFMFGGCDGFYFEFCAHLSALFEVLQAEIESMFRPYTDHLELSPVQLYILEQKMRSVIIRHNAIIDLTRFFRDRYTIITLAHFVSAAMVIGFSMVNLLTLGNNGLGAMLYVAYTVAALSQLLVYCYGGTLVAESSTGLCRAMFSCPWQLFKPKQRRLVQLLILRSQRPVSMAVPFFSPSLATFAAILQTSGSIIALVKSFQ
T1 sequence (Q9VNB5 1-486 partner): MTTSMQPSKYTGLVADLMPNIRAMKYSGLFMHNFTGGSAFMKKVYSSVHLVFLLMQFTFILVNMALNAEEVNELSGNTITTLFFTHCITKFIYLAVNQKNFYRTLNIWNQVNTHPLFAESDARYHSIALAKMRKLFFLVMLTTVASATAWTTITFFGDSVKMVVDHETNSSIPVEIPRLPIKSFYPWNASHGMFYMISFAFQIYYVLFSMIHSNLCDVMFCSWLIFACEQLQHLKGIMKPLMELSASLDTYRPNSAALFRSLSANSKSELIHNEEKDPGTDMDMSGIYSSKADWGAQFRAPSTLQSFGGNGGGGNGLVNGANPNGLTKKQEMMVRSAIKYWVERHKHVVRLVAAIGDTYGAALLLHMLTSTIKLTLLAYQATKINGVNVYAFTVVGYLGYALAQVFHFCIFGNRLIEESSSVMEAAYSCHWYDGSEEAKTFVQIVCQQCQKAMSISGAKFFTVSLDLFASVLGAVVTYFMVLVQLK
Procedure: (§1) These VUAA1 normalized ∆F values were used to compare the different receptors and ligands.
(§2) The concentration-dependent effect of the reference ligands on their cognate cell lines was examined in more detail. Twelve different ligand concentrations were measured on each cell line in an overall 0.01 μM to 100 μM concentration range with 5 repetitions with three technical replicates each time.
(§3) Twelve thousand to 18,000 cells were plated into each well of a black wall, transparent bottom 384-well microplate (Greiner) 48 h or 72 h before the measurements and were simultaneously treated with 1 μg/mL doxycycline. […] The plate has 24 columns, thus we could record responses in up to eight different cell lines in each plate. On the day of the experiment, the growth medium was replaced with 20 µL assay buffer/well (140 mM NaCl, 5 mM KCl, 2 mM CaCl2, 1 mM MgCl2, 5 mM HEPES-Na, 20 mM glucose, pH 7.3, 340 mOsm). […] Baseline fluorescence (F0) was recorded for 5 s, after which 7 µL VOC buffer (140 mM NaCl, 5 mM KCl, 2 mM CaCl2, 1 mM MgCl2, 5 mM HEPES-Na, 31 mM glucose, 0.1% DMSO, pH 7.3, 340 mOsm) was injected into each well in one row and the fluorescence response was recorded for an additional 30 s, at a rate of one read/sec. VOC solutions (VOC buffer with 4× concentration of the final measured VOC concentration, 9 µL/well was injected) were measured on the same wells in a second round with the same protocol. Each individual concentration of a specific VOC sample was recorded in three wells for the same cell line on the same microplate. The raw data were exported in xls file format, F0 and FMAX values, and the fluorescence intensity changes (∆F) were calculated in Excel (Microsoft) (Supplementary file Data summary.xlsx) using the following equation: ΔF=FMAX-F0/F0 (see also Fig. 1C). On each plate, we recorded the response of each cell line to 50 µM VUAA1. The average of these ∆F values of each cell line were used to calculate the VUAA1-normalized values for the rest of the plate, by dividing VOC response ∆F values by the average VUAA1 response ∆F value of the corresponding OR cell line. Each VOC-OR combination was measured three times as technical replicates. […] The average of these replicates were used as one ∆F and VUAA1-normalized ∆F in the following analysis.
(§4) In the next rows we tested the reference VOCs (or other VOCs known to activate the corresponding cell lines), in order to test if all cell lines are responsive. The remaining rows were used to test VOCs with unknown effect.
(§5) The recorded FMAX, F0, ∆F, VUAA1-normalized ∆F values, as well as the OR name, the name of the tested sample, and the final concentration for each well were copied into supplementary file Data summary.xlsx, that was used to summarize all the plates recorded. Here, the averages of the measurements were calculated for each receptor-VOC-concentration combination.

Drosophila OR13a = target: T2, Drosophila OR13a (Drosophila melanogaster, UniProt Q9VXL0); assay: Calcium ion fluorescence (GCaMP6) assay, OR13a stable HEK293 cell line; type: cell-based
T2 construct: expressed in transfected cells
T2 sequence (Q9VXL0 1-418): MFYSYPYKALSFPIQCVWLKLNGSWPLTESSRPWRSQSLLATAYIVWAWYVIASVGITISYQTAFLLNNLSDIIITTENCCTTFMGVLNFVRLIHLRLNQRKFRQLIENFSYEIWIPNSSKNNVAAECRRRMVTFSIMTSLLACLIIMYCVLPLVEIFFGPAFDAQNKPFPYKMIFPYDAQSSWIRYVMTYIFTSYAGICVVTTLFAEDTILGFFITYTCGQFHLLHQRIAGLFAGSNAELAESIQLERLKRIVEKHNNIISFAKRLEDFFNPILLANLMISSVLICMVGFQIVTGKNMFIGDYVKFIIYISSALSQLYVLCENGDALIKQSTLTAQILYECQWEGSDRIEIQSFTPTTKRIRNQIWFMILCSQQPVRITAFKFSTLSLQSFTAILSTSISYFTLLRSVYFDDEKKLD
T2 sequence (Q9VNB5 1-486 partner): T1 sequence (Q9VNB5 1-486 partner)
Procedure: as §1, §2, §3, §4, §5

[1] = HEK293, read-out: OR10a response (VUAA1-normalized response), VOC concentration 1 μM
[2] = HEK293, read-out: OR10a response (VUAA1-normalized response), VOC concentration 10 μM
[3] = HEK293, read-out: OR10a response (VUAA1-normalized response), VOC concentration 100 μM
[4] = ligand concentration 1 (unit not given), threshold 0.05, below shown as 0
[5] = ligand concentration 10 (unit not given), threshold 0.05, below shown as 0
[6] = ligand concentration 100 (unit not given), threshold 0.05, below shown as 0
[7] = HEK293, read-out: OR13a Average response (VUAA1-normalized), 1 μM VOC, 50 μM VUAA1 = 1, responses not exceeding 0.05 considered 0
[8] = HEK293, read-out: OR13a Average response (VUAA1-normalized), 10 μM VOC, 50 μM VUAA1 = 1, responses not exceeding 0.05 considered 0
[9] = HEK293, read-out: OR13a Average response (VUAA1-normalized), 100 μM VOC, 50 μM VUAA1 = 1, responses not exceeding 0.05 considered 0
[10] = HEK293, read-out: OR13a response (VUAA1-normalized response), VOC concentration 1 μM
[11] = HEK293, read-out: OR13a response (VUAA1-normalized response), VOC concentration 10 μM
[12] = HEK293, read-out: OR13a response (VUAA1-normalized response), VOC concentration 100 μM
[13] = HEK293, 1 μM VOC, 50 μM VUAA1 = 1, responses not exceeding 0.05 considered 0, read-out: OR10a Average response (VUAA1-normalized)
[14] = HEK293, 10 μM VOC, 50 μM VUAA1 = 1, responses not exceeding 0.05 considered 0, read-out: OR10a Average response (VUAA1-normalized)
[15] = HEK293, 100 μM VOC, 50 μM VUAA1 = 1, responses not exceeding 0.05 considered 0, read-out: OR10a Average response (VUAA1-normalized)
[16] = concentration 1, normalized fluorescence change, values below 0.05 threshold given as 0
[17] = concentration 10, normalized fluorescence change, values below 0.05 threshold given as 0
[18] = concentration 100, normalized fluorescence change, values below 0.05 threshold given as 0

Row | Structure (SMILES) | activation at 1 µM (Drosophila OR10a; [1]) [%] | activation at 10 µM (Drosophila OR10a; [2]) [%] | activation at 100 µM (Drosophila OR10a; [3]) [%] | DF norm AVERAGE OR10a (Drosophila OR10a; [4]) | DF norm AVERAGE OR10a (Drosophila OR10a; [5]) | DF norm AVERAGE OR10a (Drosophila OR10a; [6]) | activation at 1 µM (Drosophila OR13a; [7]) [%] | activation at 10 µM (Drosophila OR13a; [8]) [%] | activation at 100 µM (Drosophila OR13a; [9]) [%] | activation at 1 µM (Drosophila OR13a; [10]) [%] | activation at 10 µM (Drosophila OR13a; [11]) [%] | activation at 100 µM (Drosophila OR13a; [12]) [%] | DF norm AVERAGE OR13a (Drosophila OR13a; [4]) | DF norm AVERAGE OR13a (Drosophila OR13a; [5]) | DF norm AVERAGE OR13a (Drosophila OR13a; [6]) | activation at 1 µM (Drosophila OR10a; [13]) [%] | activation at 10 µM (Drosophila OR10a; [14]) [%] | activation at 100 µM (Drosophila OR10a; [15]) [%] | DF norm AVERAGE OR13a (Drosophila OR13a; [16]) | DF norm AVERAGE OR13a (Drosophila OR13a; [17]) | further results
1 | C=C1CCC2CC1C2(C)C (stereo not drawn) [beta-pinene] | 0 | 0 | 9 | 0 | 0 | 0.0885 | 8 | 0 | 3.25 | 8 | 0 | 0 | 0.08064 | 0 | 0 |  |  |  |  |  | activation at 1 µM (Drosophila OR10a; HEK293, read-out: OR10a Average response (VUAA1-normalized), 1 μM VOC, 50 μM VUAA1 = 1, responses not exceeding 0.05 considered 0): 2.77%; activation at 10 µM (Drosophila OR10a; HEK293, read-out: OR10a Average response (VUAA1-normalized), 10 μM VOC, 50 μM VUAA1 = 1, responses not exceeding 0.05 considered 0): 4%; activation at 100 µM (Drosophila OR10a; HEK293, read-out: OR10a Average response (VUAA1-normalized), 100 μM VOC, 50 μM VUAA1 = 1, responses not exceeding 0.05 considered 0): 9%
2 | Cc1cccc(O)c1 [3-methylphenol] | 9 | 6 | 13 |  |  |  | 0 | 0 | 1.35 | 0 | 0 | 0 |  |  |  | 9 | 6 | 13 | 0 | 0 | DF norm AVERAGE OR13a (Drosophila OR13a; [18]): 0
3 | OCCc1ccccc1 [phenethyl alcohol] |  |  |  | 0 | 0.05732 | 0 | 6.58 | 6 | 3 |  |  |  | 0.06578 | 0.05738 | 0 | 3 | 6 | 3 |  |  | OR10a response (VUAA1-normalized) at 1 μM (Drosophila OR10a; OR10a cell line, VOC concentration 1 μM): 0.00; OR10a response (VUAA1-normalized) at 10 μM (Drosophila OR10a; OR10a cell line, VOC concentration 10 μM): 0.06; OR10a response (VUAA1-normalized) at 100 μM (Drosophila OR10a; OR10a cell line, VOC concentration 100 μM): 0.00; OR13a response (VUAA1-normalized) at 1 μM (Drosophila OR13a; OR13a cell line, VOC concentration 1 μM): 0.0658; OR13a response (VUAA1-normalized) at 10 μM (Drosophila OR13a; OR13a cell line, VOC concentration 10 μM): 0.06; OR13a response (VUAA1-normalized) at 100 μM (Drosophila OR13a; OR13a cell line, VOC concentration 100 μM): 0.00
4 | O=Cc1ccccc1 [benzaldehyde] | 0 | 0 | 17 | 0 | 0 | 0.1697 | 0 | 8 | 5 | 0 | 8 | 0 | 0 | 0.07623 | 0 | 0 | 4 | 17 |  |  | 
5 | CC(=O)OCCC(C)C [isopentyl acetate] | 9 | 19 | 10 | 0.08825 | 0.1921 | 0.101 | 3 | 4 | 0 | 0 | 0 | 0 | 0 | 0 | 0 | 9 | 19 | 10 |  |  | 
6 | COc1cccc(OC)c1 [1,3-dimethoxy benzene] | 0 | 0 | 0 |  |  |  | 0 | 0 | 3.71 | 0 | 0 | 0 |  |  |  | 0 | 0 | 0 | 0 | 0 | DF norm AVERAGE OR10a (Drosophila OR10a): 0; DF norm AVERAGE OR13a (Drosophila OR13a; [18]): 0

— PMC10709440, “High-throughput ligand profile characterization in novel cell lines expressing seven heterologous insect olfactory receptors for the detection of volatile plant biomarkers” (Scientific Reports, 2023)
